Reference: patent US8193364B2, “Insecticidal N-substituted (6-haloalkylpyridin-3-yl)-alkyl sulfoximines” (Dow AgroSciences, LLC., priority 2006, dated 2012)

Key:
Type in all cases: in vivo
[1] = test system: Green Leafhopper (Nephotettix sp.); test: Green leafhopper foliar spray assay on rice
Procedure: (§1) A foliar spray assay and a root-uptake systemic assay were performed on both brown planthopper and green leafhopper. Four-week-old rice seedlings were submerged in 3-cm depth of water in the bottom portion (high 5 cm, diameter 3 cm) of a 2-part glass cylinder (high 18 cm, diameter 3 cm). A metal screen was used to hold the seedlings within the bottom portion. Scotch tape was used to bind the two portions of the cylinder after setting up the seedlings. A metal cap was used to cover the cylinder. There were 4 cylinders for each treatment. The test compound was dissolved in acetone to make a 10,000 ppm stock solution. For the foliar spray assay, this stock solution was diluted with water to make 10, 2.5, 0.31, 0.08 and 0.02 ppm test solutions. A volume of 0.5 ml of a test solution or solvent blank as check was sprayed into the glass cylinder. For systemic test, the stock solution was incorporated at final test concentrations of 10, 2.5, 0.31, 0.08 and 0.02 ppm in the water in which rice seedlings were submerged. In both foliar spray and systemic tests, five laboratory-reared 3rd instar nymphs of brown planthopper or green leafhopper were introduced into each cylinder 3 hr after insecticide application. The treated test units were kept in a growth chamber with conditions set as followings: Temperature 28±0.5° C.; Relative humidity 70±0.5%; Photoperiod […].

[2] = test system: Green Leafhopper (Nephotettix sp.); test: Green leafhopper root-uptake systemic assay on rice
Procedure: as §1

[3] = test system: Cotton Aphid (Aphis gossypii); test: Cotton aphid seed coating assay on squash; details: 10% SC formulation, infested 13 days after planting, counted 3 days later
Procedure: Compound 2 was tested in an assay designed to evaluate its systemic activity for control of cotton aphid through seed-coating prior to planting. The crop used in this assay was a hybrid squash (var. Pic-N-Pic). Test compound was formulated in a 10% SC formulation. For the 1 mg/seed treatment, the original 10% formulation was used. For the 0.1 mg/seed treatment, the 10% formulation were diluted 10× with DI water before application. Ten squash seeds were used for each treatment. Seeds were placed on waxed paper and a pipette was used to apply the original or diluted formulations to each seed. One half (5 ul) of the sample was spread onto one side of a seed. Once dried (approximately 1 hr), the seed was flipped over and the 2nd half of sample was spread over the other side. The air-dried, treated seeds were individually planted into 3 inch pots containing metro mix. The pots were placed on a California cart and moved into the greenhouse for sub watering only. Thirteen days later, when the seedlings were approximately 9 inch tall with three expanding true leaves, the 1st leaf was infested with approximately 40 wingless aphids. The infested plants were kept in an environmental holding room (23 C, 40% RH, 16 hr light: 8 hr dark) for three days before the number of live aphids was counted under a microscope. […]

## CC(c1ccc(C(F)(F)F)nc1)S(C)(=O)=NC#N (stereo not drawn) [Compound 2, [1-(6-trifluoromethylpyridin-3-yl)ethyl](methyl)-oxido-λ^4-sulfanylidenecyanamide]
[1]; 0.02 ppm
  % Control at ppm against green leafhopper: D (60-69)
[1]; 0.08 ppm
  % Control at ppm against green leafhopper: A (90-100)
[1]; 0.31 ppm
  % Control at ppm against green leafhopper: A (90-100)
[1]; 2.5 ppm
  % Control at ppm against green leafhopper: A (90-100)
[1]; 10 ppm
  % Control at ppm against green leafhopper: A (90-100)
[2]; 0.02 ppm in water
  % Control at ppm against green leafhopper: D (60-69)
[2]; 0.08 ppm in water
  % Control at ppm against green leafhopper: B (80-89)
[2]; 0.31 ppm in water
  % Control at ppm against green leafhopper: A (90-100)
[2]; 2.5 ppm in water
  % Control at ppm against green leafhopper: A (90-100)
[2]; 10 ppm in water
  % Control at ppm against green leafhopper: A (90-100)
[3]; seed coating 0.1 mg/seed
  % Control, root uptake systemic, cotton aphid on squash: 99.7%
[3]; seed coating 1 mg/seed
  % Control, root uptake systemic, cotton aphid on squash: 100%
